# System: Aβ peptide (1-40 amino acid sequence)
# Assay: Anti-Aβ IgG antibody titer of murine serum after immunization with Aβ peptides (ELISA on immobilized Aβ 1-40)
# Type: in vivo, C57BL/6 mice
# Details: for Antibody titer Animal No. 1 / Antibody titer Animal No. 2 / Antibody titer Animal No. 3 / Antibody titer Animal No. 4: C57BL/6 mouse serum, Day 7 from final 3rd immunization; for Antibody titer Animal No. 1 / Antibody titer Animal No. 2 / Antibody titer Animal No. 3 / Antibody titer Animal No. 4 / Antibody titer Mean: 100 μg/mouse; for Antibody titer Mean: mean of 4 mice, serum Day 7 from final 3rd immunization
# [1] = Example 4, result in words on Table 4
# [2] = Example 7, result in words on Table 7
# [3] = Example 8, result in words on Table 8
# [4] = Example 2, result in words on Table 2
sequence,measurement,setting,value
"AEFRHDSGKGAIIGLMVGC (added cysteine) [2-9•28-37AACys, 2-9+28-37-amino acid Aβ peptide with addition of Cysteine]",Antibody titer Animal No. 1,Example 4,7038 ng/mL
same,Antibody titer Animal No. 2,Example 4,29489 ng/mL
same,Antibody titer Animal No. 3,Example 4,16 ng/mL
same,Antibody titer Animal No. 4,Example 4,17 ng/mL
same,Antibody titer Mean,Example 4,9139.9 ng/mL
same,induction of an antibody to Aβ,[1],observed
"AEFRHDSGYKGAIIGLMVGC [2-10•28-37AACys, 2-10+28-37-amino acid Aβ peptide with addition of Cysteine]",Antibody titer Animal No. 1,Example 4,72890 ng/mL
same,Antibody titer Animal No. 2,Example 4,57573 ng/mL
same,Antibody titer Animal No. 3,Example 4,6094 ng/mL
same,Antibody titer Animal No. 4,Example 4,42593 ng/mL
same,Antibody titer Mean,Example 4,44787.5 ng/mL
same,induction of an antibody to Aβ,[1],observed
"DAEFRHDKGAIIGLMVGC [1-7•28-37AACys, 1-7+28-37-amino acid Aβ peptide with addition of Cysteine]",Antibody titer Animal No. 1,Example 3,26 ng/mL
same,Antibody titer Animal No. 2,Example 3,27 ng/mL
same,Antibody titer Animal No. 3,Example 3,34 ng/mL
same,Antibody titer Animal No. 4,Example 3,15 ng/mL
same,Antibody titer Mean,Example 3,25.6 ng/mL
"DAEFRHDSGKGAIIGLMVGC [1-9•28-37AACys, 1-9+28-37-amino acid Aβ peptide with addition of Cysteine]",Antibody titer Animal No. 1,Example 3,398 ng/mL
same,Antibody titer Animal No. 2,Example 3,249 ng/mL
same,Antibody titer Animal No. 3,Example 3,2772 ng/mL
same,Antibody titer Animal No. 4,Example 3,8899 ng/mL
same,Antibody titer Mean,Example 3,3079.5 ng/mL
same,induction of an antibody to Aβ,"Example 3, result in words on Table 3",observed
"DAEFRHDSGYAIIGLMVGGVVIAC [1-10•30-42AACys, 1-10+30-42-amino acid Aβ peptide with addition of Cysteine]",Antibody titer Animal No. 1,Example 1,9 ng/mL
same,Antibody titer Animal No. 2,Example 1,7 ng/mL
same,Antibody titer Animal No. 3,Example 1,11 ng/mL
same,Antibody titer Animal No. 4,Example 1,8 ng/mL
same,Antibody titer Mean,Example 1,8.4 ng/mL
"DAEFRHDSGYEVHHQKLVCFFAEDVG [1-18Cys19-25AA, 25-amino acid Aβ peptide wherein cysteine is inserted between residues Nos. 18 and 19]",Antibody titer Animal No. 1,Example 7,1.5 ng/mL
same,Antibody titer Animal No. 2,Example 7,6.6 ng/mL
same,Antibody titer Animal No. 3,Example 7,71.4 ng/mL
same,Antibody titer Animal No. 4,Example 7,1398 ng/mL
same,Antibody titer Mean,Example 7,369.4 ng/mL
same,induction of an antibody to Aβ,[2],observed in one of four cases
"DAEFRHDSGYEVHHQKLVCFFAEDVGS [1-18Cys19-26AA, 26-amino acid Aβ peptide wherein cysteine is inserted between residues Nos. 18 and 19]",Antibody titer Animal No. 1,Example 7,127.5 ng/mL
same,Antibody titer Animal No. 2,Example 7,7001 ng/mL
same,Antibody titer Animal No. 3,Example 7,15779 ng/mL
same,Antibody titer Animal No. 4,Example 7,164 ng/mL
same,Antibody titer Mean,Example 7,5767.9 ng/mL
same,induction of an antibody to Aβ,[2],observed
"DAEFRHDSGYEVHHQKLVCFFAEDVGSN [1-18Cys19-27AA, 27-amino acid Aβ peptide wherein cysteine is inserted between residues Nos. 18 and 19]",Antibody titer Animal No. 1,Example 7,2482 ng/mL
same,Antibody titer Animal No. 2,Example 7,3125 ng/mL
same,Antibody titer Animal No. 3,Example 7,2631 ng/mL
same,Antibody titer Animal No. 4,Example 7,17.2 ng/mL
same,Antibody titer Mean,Example 7,2063.8 ng/mL
same,induction of an antibody to Aβ,[2],observed
"DAEFRHDSGYEVHHQKLVCFFAEDVGSNK [1-18Cys19-28AA, 28-amino acid Aβ peptide wherein cysteine is inserted between residues Nos. 18 and 19]",Antibody titer Animal No. 1,Example 6,448154 ng/mL
same,Antibody titer Animal No. 2,Example 6,97146 ng/mL
same,Antibody titer Animal No. 3,Example 6,233411 ng/mL
same,Antibody titer Animal No. 4,Example 6,57794 ng/mL
same,Antibody titer Mean,Example 6,209126.3 ng/mL
DAEFRHDSGYEVHHQKLVCFFAEDVGSNKC [1-18Cys19-28AACys],Antibody titer Animal No. 1,Example 6,19908 ng/mL
same,Antibody titer Animal No. 2,Example 6,361259 ng/mL
same,Antibody titer Animal No. 3,Example 6,4161 ng/mL
same,Antibody titer Animal No. 4,Example 6,29412 ng/mL
same,Antibody titer Mean,Example 6,103685.0 ng/mL
"DAEFRHDSGYEVHHQKLVCKGAIIGLMVG [1-18Cys28-37AA, Aβ residues 1-18, cysteine, then Aβ residues 28-37]",Antibody titer Animal No. 1,Example 8,12541 ng/mL
same,Antibody titer Animal No. 2,Example 8,1964 ng/mL
same,Antibody titer Animal No. 3,Example 8,599 ng/mL
same,Antibody titer Animal No. 4,Example 8,25102 ng/mL
same,Antibody titer Mean,Example 8,10051.5 ng/mL
same,induction of an antibody to Aβ,[3],observed
"DAEFRHDSGYEVHHQKLVCKGAIIGLMVGC [1-18Cys28-37AACys, Aβ residues 1-18, cysteine, Aβ residues 28-37, C-terminal cysteine]",Antibody titer Animal No. 1,Example 8,1073 ng/mL
same,Antibody titer Animal No. 2,Example 8,43 ng/mL
same,Antibody titer Animal No. 3,Example 8,10 ng/mL
same,Antibody titer Animal No. 4,Example 8,4864 ng/mL
same,Antibody titer Mean,Example 8,1497.5 ng/mL
same,induction of an antibody to Aβ,[3],observed
"DAEFRHDSGYEVHHQKLVKGAIIGLMVG [1-18•28-37AA, reference compound]",Antibody titer Animal No. 1,Example 8,11 ng/mL
same,Antibody titer Animal No. 2,Example 8,11 ng/mL
same,Antibody titer Animal No. 3,Example 8,11 ng/mL
same,Antibody titer Animal No. 4,Example 8,9 ng/mL
same,Antibody titer Mean,Example 8,10.5 ng/mL
DAEFRHDSGYEVHHQKLVKGAIIGLMVGC [1-18•28-37AACys],Antibody titer Animal No. 1,Example 8,11 ng/mL
same,Antibody titer Animal No. 2,Example 8,9 ng/mL
same,Antibody titer Animal No. 3,Example 8,10 ng/mL
same,Antibody titer Animal No. 4,Example 8,13 ng/mL
same,Antibody titer Mean,Example 8,10.75 ng/mL
"DAEFRHDSGYEVHHQKLVKGAIIGLMVGGVVIAC [1-18•28-42AACys, 1-18+28-42-amino acid Aβ peptide with addition of Cysteine]",Antibody titer Animal No. 1,Example 5,69336 ng/mL
same,Antibody titer Animal No. 2,Example 5,41211 ng/mL
same,Antibody titer Animal No. 3,Example 5,51611 ng/mL
same,Antibody titer Animal No. 4,Example 5,7004 ng/mL
same,Antibody titer Mean,Example 5,42290.5 ng/mL
"DAEFRHDSGYGAIIGLMVGGVVIAC [1-10•29-42AACys, 1-10+29-42-amino acid Aβ peptide with addition of Cysteine]",Antibody titer Animal No. 1,Example 1,16 ng/mL
same,Antibody titer Animal No. 2,Example 1,16 ng/mL
same,Antibody titer Animal No. 3,Example 1,87 ng/mL
same,Antibody titer Animal No. 4,Example 1,11 ng/mL
same,Antibody titer Mean,Example 1,32.6 ng/mL
"DAEFRHDSGYKGAIIGLC [1-10•28-34AACys, 1-10+28-34-amino acid Aβ peptide with addition of Cysteine]",Antibody titer Animal No. 1,Example 2,29 ng/mL
same,Antibody titer Animal No. 2,Example 2,30 ng/mL
same,Antibody titer Animal No. 3,Example 2,26 ng/mL
same,Antibody titer Animal No. 4,Example 2,25 ng/mL
same,Antibody titer Mean,Example 2,27.4 ng/mL
"DAEFRHDSGYKGAIIGLMC [1-10•28-35AACys, 1-10+28-35-amino acid Aβ peptide with addition of Cysteine]",Antibody titer Animal No. 1,Example 2,44 ng/mL
same,Antibody titer Animal No. 2,Example 2,19 ng/mL
same,Antibody titer Animal No. 3,Example 2,8361 ng/mL
same,Antibody titer Animal No. 4,Example 2,220 ng/mL
same,Antibody titer Mean,Example 2,2161.0 ng/mL
"DAEFRHDSGYKGAIIGLMVC [1-10•28-36AACys, 1-10+28-36-amino acid Aβ peptide with addition of Cysteine]",Antibody titer Animal No. 1,Example 2,11821 ng/mL
same,Antibody titer Animal No. 2,Example 2,259763 ng/mL
same,Antibody titer Animal No. 3,Example 2,77 ng/mL
same,Antibody titer Animal No. 4,Example 2,44922 ng/mL
same,Antibody titer Mean,Example 2,79145.6 ng/mL
same,induction of an antibody to Aβ,[4],observed
"DAEFRHDSGYKGAIIGLMVGC [1-10•28-37AACys, 1-10+28-37-amino acid Aβ peptide with addition of Cysteine]",Antibody titer Animal No. 1,Example 2,79708 ng/mL
same,Antibody titer Animal No. 2,Example 2,1531 ng/mL
same,Antibody titer Animal No. 3,Example 2,24694 ng/mL
same,Antibody titer Animal No. 4,Example 2,100619 ng/mL
same,Antibody titer Mean,Example 2,51638.0 ng/mL
same,induction of an antibody to Aβ,[4],observed
"DAEFRHDSGYKGAIIGLMVGGC [1-10•28-38AACys, 1-10+28-38-amino acid Aβ peptide with addition of Cysteine]",Antibody titer Animal No. 1,Example 2,19149 ng/mL
same,Antibody titer Animal No. 2,Example 2,34270 ng/mL
same,Antibody titer Animal No. 3,Example 2,108780 ng/mL
same,Antibody titer Animal No. 4,Example 2,61824 ng/mL
same,Antibody titer Mean,Example 2,56005.8 ng/mL
same,induction of an antibody to Aβ,[4],observed
"DAEFRHDSGYKGAIIGLMVGGVC [1-10•28-39AACys, 1-10+28-39-amino acid Aβ peptide with addition of Cysteine]",Antibody titer Animal No. 1,Example 2,139361 ng/mL
same,Antibody titer Animal No. 2,Example 2,10808 ng/mL
same,Antibody titer Animal No. 3,Example 2,13326 ng/mL
same,Antibody titer Animal No. 4,Example 2,230453 ng/mL
same,Antibody titer Mean,Example 2,98487.0 ng/mL
same,induction of an antibody to Aβ,[4],observed
"DAEFRHDSGYKGAIIGLMVGGVVC [1-10•28-40AACys, 1-10+28-40-amino acid Aβ peptide with addition of Cysteine]",Antibody titer Animal No. 1,Example 2,4560 ng/mL
same,Antibody titer Animal No. 2,Example 2,148622 ng/mL
same,Antibody titer Animal No. 3,Example 2,5118 ng/mL
same,Antibody titer Animal No. 4,Example 2,4988 ng/mL
same,Antibody titer Mean,Example 2,40822.0 ng/mL
same,induction of an antibody to Aβ,[4],observed
